Reference: article PMC3501516, “Anti-Diabetic Efficacy and Impact on Amino Acid Metabolism of GRA1, a Novel Small-Molecule Glucagon Receptor Antagonist” (PLoS ONE, 2012)
pIC50: −log10 of the molar value. Where two headings read alike, the source gives them in different places.

Columns and labels:
[1] = system: perfused liver from hGCGR mice; assay: Glucagon-stimulated glycogenolysis in perfused liver from hGCGR mouse (13C NMR); settings: 50 pM glucagon
Experimental: Livers were perfused with Ringers solution containing 6.7 mM [2-^13C]pyruvate while ^13C content (indicative of accumulated [^13C]glycogen) was monitored dynamically by nuclear magnetic resonance imaging. At time = −22 min, 0.1–3.0 uM GRA1 or vehicle was added to the perfusate; 50 pM glucagon or vehicle was added at time 0. The data are means ±SEM.
Glycogen content of perfused hGCGR mouse liver was measured as previously described [30]. In brief, livers were perfused ex vivo with Ringers solution containing 6.7 mM [2-^13C]pyruvate while ^13C content (indicative of accumulated [^13C]glycogen) was monitored dynamically by nuclear magnetic resonance imaging.

hepatic hGCGR = target: T1, hepatic hGCGR (Homo sapiens, UniProt P47871); assay: In vivo inhibition of hepatic 125I-glucagon binding (hGCGR occupancy) in hGCGR mouse
T1 construct: a transgenic line of mouse that expresses the hGCGR instead of the murine GCGR; from tissue; host or cells: liver of hGCGR mouse, in vivo
T1 sequence (P47871 26-477): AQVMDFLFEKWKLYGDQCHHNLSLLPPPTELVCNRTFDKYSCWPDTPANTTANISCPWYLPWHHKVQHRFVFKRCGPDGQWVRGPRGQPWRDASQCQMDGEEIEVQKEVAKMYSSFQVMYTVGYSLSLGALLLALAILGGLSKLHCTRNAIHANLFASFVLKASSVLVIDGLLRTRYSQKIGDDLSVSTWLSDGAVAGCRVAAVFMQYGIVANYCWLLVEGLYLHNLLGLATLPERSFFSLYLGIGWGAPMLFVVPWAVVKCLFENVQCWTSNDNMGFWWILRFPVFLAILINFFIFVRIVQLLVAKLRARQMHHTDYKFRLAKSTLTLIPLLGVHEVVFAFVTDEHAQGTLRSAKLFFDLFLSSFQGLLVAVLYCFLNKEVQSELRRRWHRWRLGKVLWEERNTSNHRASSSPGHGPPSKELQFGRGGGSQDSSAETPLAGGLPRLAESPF
Experimental: Inhibition of ^125I-glucagon binding to hGCGR (a measure of hGCGR occupancy by antagonist) was assayed in hGCGR mouse liver in vivo as previously described. Glycogen content of perfused hGCGR mouse liver was measured as previously described. In brief, livers were perfused ex vivo with Ringers solution containing 6.7 mM [2-^13C]pyruvate while ^13C content (indicative of accumulated [^13C]glycogen) was monitored dynamically by nuclear magnetic resonance imaging.
Figure 2 In vivo inhibition of hepatic ^125I-glucagon binding in the hGCGR mouse following (A) acute and (B) chronic dosing with GRA1. The data are mean (±SEM) percent reductions in liver ^125I-glucagon content measured (A) 1, 3, 5, and 8 h after a single oral dose of 3 mg/kg GRA1, and (B) after treatment for 30 days with control diet or food/drug admixtures that provided 3, 6, 10, or 30 mg/kg·day GRA1.

hGCGR.ob/ob mice = assay: Antihyperglycemic efficacy in hGCGR.ob/ob mice (acute and chronic); type: in vivo, hGCGR.ob/ob mouse
Text: The present study made use of a line of hGCGR-expressing mouse (“hGCGR mouse”) generated previously by substituting the hGCGR gene for the mouse GCGR gene. These mice were crossed with C57BL/6J.ob/+ mice (Jackson Laboratories, Bar Harbor, ME) to obtain an hGCGR.ob/+ mouse line. The hGCGR.ob/+ mice were then intercrossed to obtain hGCGR.ob/ob, hGCGR.ob/+, and hGCGR.+/+ mice (with the hGCGR.ob/+ and hGCGR.+/+ mice serving as littermate controls). […] obese (DIO) hGCGR mice were generated by maintaining hGCGR mice on a high-fat diet (HFD) in which 45–60% of calories were in fat (Product S3282, Bio-Serv, Frenchtown, NJ). High-fat-diet-streptozotocin-treated (HFD/STZ) diabetic mice were generated in-house as previously described.
Acute glucose lowering was studied in non-fasted hGCGR.ob/ob mice and HFD/STZ mice administered single doses p.o. of 1, 3 and 10 mg/kg GRA1 in 10 mL/kg 0.5% aqueous methylcellulose. Animals were fasted during the interval between dosing and the final blood glucose measurement. Glucose was measured in blood from tail bleeds using a OneTouch glucometer. In the experiments with hGCGR HFD/STZ mice, treatment groups were matched with respect to body weight and blood glucose levels.
Animals were dosed chronically with GRA1 and the DPP-4 inhibitor des-fluoro-sitagliptin by administering these agents as food admixtures. The admixtures were prepared in-house and by Research Diets (New Brunswick, NJ), with drug concentrations adjusted weekly on the basis of average food consumption and animal weight to provide targeted daily doses. In the GRA1 experiments, the targeted doses were 3, 6, 10, and 30 mg/kg•day. In des-fluoro-sitagliptin experiments, the targeted dose was 200 mg/kg•day, a relatively high amount necessary because this compound has a half-life in rodents of 1–2 h.
Plasma glucagon and active GLP-1 were measured using commercial ELISA kits (Linco Research Immunoassay, St. Charles, MO). […] Plasma insulin was determined by ELISA with a commercial kit (ALPCO Diagnostics, Windham, NH). Plasma concentrations of glycated hemoglobin A1c (HbA1c) were measured using a Micromat II test kit from Bio-Rad Laboratories (Hercules, CA). Total cholesterol, low-density lipoprotein cholesterol (LDL-c) and non-LDL-c, and aspartate aminotransferase were measured using a Roche P Modular Clinical Chemistry analyzer (Indianapolis, IN).
Figure 4 GRA1 lowers blood glucose in the DIO hGCGR and hGCGR.ob/ob mouse. Mean (±SEM) blood glucose concentrations in (A) non-fasted and (B) fasted DIO hGCGR mice treated with approximately 3 and 10 mg/kg·day GRA1 provided as a food admixture. (Additional data from this study are in Table 2). (C) Mean (±SEM) blood glucose concentrations in the hGCGR.ob/ob mouse following single oral doses of 1, 3, or 10 mg/kg GRA1 or vehicle. (D) Mean (±SEM) non-fasted blood glucose concentrations in hGCGR.ob/ob mice treated for 2–8 weeks with control diet or 10 mg/kg·day GRA1 administered as diet admixture. *p<0.05, **p<0.01, and ***p<0.001 in timepoint-matched comparisons with controls; n = 8 in each group.

human GCGR (hGCGR) = target: T2, human GCGR (hGCGR) (Homo sapiens, UniProt P47871); assay: Inhibition of 125I-glucagon binding to hGCGR in membranes of CHO cells expressing hGCGR; settings: CHO cell membranes
T2 construct: expressed in transfected cells
T2 sequence (P47871 26-477): as above
Text: Transfected Chinese hamster ovary (CHO) cell lines were acquired and maintained as previously described, [20]. These included separate cell lines stably expressing human GCGR (hGCGR), mouse GCGR, rhesus GGCR, glucose-dependent insulinotropic peptide receptor (GIPR), GLP-1 receptor (GLP-1R), pituitary adenylate cyclase-activating polypeptide receptor type 1 (PAC1R), and vasoactive adenylate cyclase-activating polypeptide receptor type 2 (VPAC2R). Inhibition of glucagon binding to hGCGR was assayed in cell membranes prepared from the line of CHO cells that expressed the hGCGR. Functional antagonism was assayed by measuring the production of cAMP in intact CHO cells stimulated by agonists specific for their cognate receptors (i.e., glucagon for GCGR-expressing cell lines, GIP for the GIPR-expressing line, etc.). Primary human hepatocytes were obtained from In Vitro Technologies (Baltimore, MD) and glucagon-stimulated glycogenolysis was studied in these as previously described.

[2] = Pharmacokinetics / plasma GRA1 concentrations in rhesus monkeys; type: in vivo, rhesus monkey

Structure (SMILES): COc1ccc2cc(-c3cc(-c4cc(C(F)(F)F)ccc4F)nn3[C@@H](C)c3ccc(C(=O)NCCC(=O)O)cc3)ccc2c1 [GRA1, N-[4-((1S)-1-{3-(2-fluoro-5-trifluoromethylphenyl)-5-[6-methoxynaphth-2-yl]-1H-pyrazol-1-yl}ethyl)benzoyl]-β-alanine]
- Reduction of hepatic response to glucagon (13C glycogen loss) ([1]; 0.3 µM GRA1 pretreatment): about 50%
- Hepatic response to glucagon (13C glycogen loss) ([1]; 1 µM GRA1 pretreatment): completely prevented
- Hepatic response to glucagon (13C glycogen loss) ([1]; 3 µM GRA1 pretreatment): completely prevented
- receptor occupancy at 3 mg/kg (hepatic hGCGR; 30 days food admixture, 3 mg/kg·day, read-out: Receptor occupancy): 71%
- receptor occupancy at 6 mg/kg (hepatic hGCGR; 30 days food admixture, 6 mg/kg·day): 78%
- receptor occupancy at 10 mg/kg (hepatic hGCGR; 30 days food admixture, 10 mg/kg·day): 83%
- receptor occupancy at 30 mg/kg (hepatic hGCGR; 30 days food admixture, 30 mg/kg·day): 93%
- receptor occupancy at 3 mg/kg (hepatic hGCGR; po, single oral dose 3 mg/kg, 1 h postdose, read-out: Receptor occupancy): 64%
- receptor occupancy at 3 mg/kg (hepatic hGCGR; po, single oral dose 3 mg/kg, 3 h postdose, read-out: Receptor occupancy): 71%
- receptor occupancy at 3 mg/kg (hepatic hGCGR; po, single oral dose 3 mg/kg, 5 h postdose, read-out: Receptor occupancy): 65%
- receptor occupancy at 3 mg/kg (hepatic hGCGR; po, single oral dose 3 mg/kg, 8 h postdose, read-out: Receptor occupancy): 73%
- receptor occupancy at 3 mg/kg (hepatic hGCGR; po, single oral dose 3 mg/kg, for 1–8 h, read-out: Reduction of in vivo occupancy of hepatic hGCGR by 125I-glucagon): 64 to 73%
- Non-fasted blood glucose lower than control diet (hGCGR.ob/ob mice; 10 mg/kg•day, 2, 4 and 8 weeks): 40–50%
- Food intake, body weight, fasting insulin levels vs control diet (hGCGR.ob/ob mice; 10 mg/kg•day, 8 weeks (data not shown)): No differences
- Mean fasted blood glucose (hGCGR.ob/ob mice; 10 mg/kg•day, 8 weeks, control diet 189±36): 90.8 ± 7.8 mg/dL
- Mean plasma glucagon (hGCGR.ob/ob mice; 10 mg/kg•day, 8 weeks, control diet 959±90): 1356 ± 113 pg/mL
- Total GLP-1 (hGCGR.ob/ob mice; 10 mg/kg•day, 8 weeks, controls 15.6±2.0): 26.5 ± 3.0 pM
- Effect on blood glucose, single dose (hGCGR.ob/ob mice; single doses of 3 and 10 mg/kg vs vehicle): lowered blood glucose significantly
- pIC50 (human GCGR (hGCGR)): 8.40
- concentration at 1 h ([2]; rhesus monkey, plasma, oral, 1 mg/kg, 1 h postdose (glucagon challenge)): 200 nM
- half-life ([2]; rhesus monkey, plasma, single oral dose 2 mg/kg, read-out: Apparent plasma terminal half-life (converted)): 6.3 h
- Fraction of the dose absorbed ([2]; single oral dose 2 mg/kg): 55%
- Route of excretion ([2]; single oral dose 2 mg/kg): nearly all absorbed drug was excreted unchanged via the bile
